“Also recorded” adds a separate entry of the source.
Assays:
Black nightshade = test: Ex15 PRE 2,4-DC + S-metolachlor, % control 28 DAT, Colby; assay type: in vivo, Solanum nigrum
Source text: The weeds tested in this study were redroot pigweed (Amaranthus retroflexus, AMARE), Jimsonweed (Datura stramonium, DATST), black nightshade (Solanum nigrum, SOLNI), large crabgrass (Digitaria sanguinalis, DIGSA), Pennsylvania smartweed (Polygonum pensylvanicum, POLPY), horseweed (Conyza canadensis, ERICA), wild buckwheat (Polygonum convolvulus, POLCO). The crop tested was Corn (var. Viking).
To determine PRE efficacy and corn injury, five rates of each 2,4 DC (36.7% CS) and S-metolachlor (Dual II Magnum®, 82.4%) were applied either alone or as tank-mix. 2,4 DC was applied at 0, 125, 170, 210, or 250 g ai/ha and S-metolachlor was applied at 0, 267, 534, 801, or 1070 g ai/ha. Additional treatments included application of premix of pyroxasulfone plus fluthiacet-methyl (Anthem™ 23.3%) at 169.9 g ai/ha and tank-mix of mesotrione (Callisto®, 40%) at 123 g plus S-metolachlor at 1252 g. Treatments were applied just after the planting of large crabgrass, Jimsonweed, black nightshade, redroot pigweed, Pennsylvania smartweed, horseweed, wild buckwheat, and corn.
Flats were watered and fertilized routinely after treatment application. Each treatment was replicated three times. […] Corn injury was rated for bleaching and stunting.

Blackgrass = test: Ex34 PRE 2,4-DC + napropamide, % control, Colby; assay type: in vivo, Alopecurus myosuroides; details: 28 DAT
Source text: Thereafter flats were watered and fertilized routinely.

Italian ryegrass = test: Ex36 POST 2,4-DC + metsulfuron-methyl, % control 28 DAT, Colby; assay type: in vivo, Lolium perenne L. ssp. multiflorum
Source text: Crops screened were wheat and barley.

Barley = test: Ex40 POST 2,4-DC + metsulfuron-methyl, crop injury 7 DAT; assay type: in vivo
Method: (§1) Treatments were applied to barley and wheat crops.
(§2) Non-ionic surfactant (NIS) was added to all treatments at 0.5% v/v. All plant species were direct seeded into 3″ plastic pots using metro-mix as growth media. At treatment common lambsquarters was 1.75″, common chickweed was 2″, wild mustard was 2.25″, wild oat was 5.5″, wild buckwheat was 2-5″, Italian ryegrass was 2-3″, wheat was 5.5″ and barley was 4.5″ in height. Plants were watered well before application and not watered 24 h after application. Plants were watered and fertilized routinely after treatment application. Each treatment was replicated four times. Treated flats were placed in randomized block design in the greenhouse.

wheat = test: as above; assay type: in vivo
Method: as §1, §2

weeds = test: Ex18 PRE greenhouse; assay type: in vivo; details: weed and rate in the words
weeds; Sugarcane (CTC20) = test: Ex23 PRE greenhouse; details: 28 DAT, weed and rate in the words
weeds; canola, and wheat = test: Ex30 PRE greenhouse; assay type: in vivo
Source text: Treatments were applied before the emergence of Italian ryegrass, wild oat, blackgrass, littleseed canarygrass, common chickweed, common lambsquarters, corn poppy, silky windgrass, redroot pigweed, wild mustard, annual bluegrass, canola, and wheat. […] Flats were watered and fertilized routinely after treatment application.

weeds; Wheat and canola = test: Ex35 PRE greenhouse; assay type: in vivo; details: rate in the words
Source text: Crops screened were wheat and canola.

Yellow nutsedge = test: Ex39 PRE 2,4-DC + pyroxasulfone + carfentrazone, % control 28 DAT, Colby

CC1(C)CON(Cc2ccc(Cl)cc2Cl)C1=O [2,4-DC, 2-(2,4-dichlorophenyl)methyl-4,4-dimethyl-3-isoxazolidinone]
X (Black nightshade; 2,4-DC alone 125 g ai/ha): 32%
X (Black nightshade; 2,4-DC alone 170 g ai/ha): 33%
X (Black nightshade; 2,4-DC alone 210 g ai/ha): 47%
X (Black nightshade; 2,4-DC alone 250 g ai/ha): 50%
X (Blackgrass; 2,4-DC alone 31 g ai/ha): 10%
X (Blackgrass; 2,4-DC alone 63 g ai/ha): 18%
X (Blackgrass; 2,4-DC alone 125 g ai/ha): 84%
X (Blackgrass; 2,4-DC alone 250 g ai/ha): 93%
X (Blackgrass; 2,4-DC alone 375 g ai/ha): 97%
X (Italian ryegrass; 2,4-DC alone 50 g ai/ha): 22%
X (Italian ryegrass; 2,4-DC alone 100 g ai/ha): 18%
X (Italian ryegrass; 2,4-DC alone 200 g ai/ha): 29%
X (% crop injury, 2,4-DC alone) (Barley; POST, 2,4-DC 125 g ai/ha): 4%
X (% crop injury, 2,4-DC alone) (Barley; POST, 2,4-DC 170 g ai/ha): 6%
X (% crop injury, 2,4-DC alone) (Barley; POST, 2,4-DC 210 g ai/ha): 8%
X (% crop injury, 2,4-DC alone) (Barley; POST, 2,4-DC 250 g ai/ha): 14%
X (% crop injury, 2,4-DC alone) (wheat; POST, 2,4-DC 125 g ai/ha): 5%
X (% crop injury, 2,4-DC alone) (wheat; POST, 2,4-DC 170 g ai/ha): 14%
X (% crop injury, 2,4-DC alone) (wheat; POST, 2,4-DC 210 g ai/ha): 17%
X (% crop injury, 2,4-DC alone) (wheat; POST, 2,4-DC 250 g ai/ha): 31%
weed control in words (weeds): controlled goosegrass at ≥170 g ai/ha
weed control in words (weeds; Sugarcane (CTC20)): applied alone at ≥500 g ai/ha controlled (≥85% injury) large crabgrass and redroot pigweed
injury to canola (weeds; canola, and wheat; at 100 g): 11%
injury to wheat (weeds; canola, and wheat; at 200 g): 11%
weed control in words (weeds; canola, and wheat; weed and rate in the words): alone gave control of pigweed, corn poppy, and Italian ryegrass at ≥200 g ai/ha, wild oat at 400 g, blackgrass at ≥100 g, and common chickweed at all rates
weed control / crop safety in words (weeds; Wheat and canola): alone at 50 g ai/ha controlled (≥85% injury) common chickweed, at 100 g controlled blackgrass and wild buckwheat; also recorded: alone was safe on wheat and canola (≤10% injury) when applied at 50 and 100 g
X (% control, 2,4-DC alone) (Yellow nutsedge; PRE, 2,4-DC 50 g ai/ha): 1%
X (% control, 2,4-DC alone) (Yellow nutsedge; PRE, 2,4-DC 100 g ai/ha): 3%
X (% control, 2,4-DC alone) (Yellow nutsedge; PRE, 2,4-DC 200 g ai/ha): 3%

— patent publication US12616203B2, “Use of 3-isoxazolidinones compounds as selective herbicides” (FMC Corporation, priority 2014, dated 2026)
